# Target: T1, hCav3.2 (Homo sapiens, UniProt O95180)
# T1 construct: host or cells: HEK
# Assay: Manual patch clamp experiment of hCav3.2 channel (HEK-hCav3.2)
# Assay type: cell-based
# Settings: read-out: Cav3.2(IC50/nM)
# Experimental: Manual Patch Clamp Experiment of hCav3.2 Channel: The stable cell line HEK-hCav3.2 used for manual patch clamp experiments was from WuXi Apptec (Shanghai) Company. […] Composition of extracellular fluid (millimoles) in the experiment: HEPES 10, CsCl 6, CaCl2) 2, TEA-Cl 140. The pH was adjusted to 7.4 with CsOH, while the osmotic pressure was adjusted to 310-320 mOsm with sucrose, filtered and stored at 4° C. Composition of the intracellular fluid (millimoles): HEPES 10, CsCl 55, CsSO4 75, MgCl2 10, EGTA 0.1. The pH was adjusted to 7.2 with CsOH, while the osmotic pressure was adjusted to 280-290 mOsm with sucrose, filtered and stored at −20° C. […] Manual Patch Clamp Experiment: The cell suspension was added to a 35 mm petri dish and placed on an inverted microscope stage. The cells were perfused with an extracellular fluid and the flow rate was 1-2 mL/min after cell adherence. […] The stimulation program was repeated every 15 s and recorded continuously. The inhibitory effect of the compound was calculated by the change of the current before and after dosing, and the IC50 value was fitted by the Hill equation.
# T1 sequence (O95180 whole entry): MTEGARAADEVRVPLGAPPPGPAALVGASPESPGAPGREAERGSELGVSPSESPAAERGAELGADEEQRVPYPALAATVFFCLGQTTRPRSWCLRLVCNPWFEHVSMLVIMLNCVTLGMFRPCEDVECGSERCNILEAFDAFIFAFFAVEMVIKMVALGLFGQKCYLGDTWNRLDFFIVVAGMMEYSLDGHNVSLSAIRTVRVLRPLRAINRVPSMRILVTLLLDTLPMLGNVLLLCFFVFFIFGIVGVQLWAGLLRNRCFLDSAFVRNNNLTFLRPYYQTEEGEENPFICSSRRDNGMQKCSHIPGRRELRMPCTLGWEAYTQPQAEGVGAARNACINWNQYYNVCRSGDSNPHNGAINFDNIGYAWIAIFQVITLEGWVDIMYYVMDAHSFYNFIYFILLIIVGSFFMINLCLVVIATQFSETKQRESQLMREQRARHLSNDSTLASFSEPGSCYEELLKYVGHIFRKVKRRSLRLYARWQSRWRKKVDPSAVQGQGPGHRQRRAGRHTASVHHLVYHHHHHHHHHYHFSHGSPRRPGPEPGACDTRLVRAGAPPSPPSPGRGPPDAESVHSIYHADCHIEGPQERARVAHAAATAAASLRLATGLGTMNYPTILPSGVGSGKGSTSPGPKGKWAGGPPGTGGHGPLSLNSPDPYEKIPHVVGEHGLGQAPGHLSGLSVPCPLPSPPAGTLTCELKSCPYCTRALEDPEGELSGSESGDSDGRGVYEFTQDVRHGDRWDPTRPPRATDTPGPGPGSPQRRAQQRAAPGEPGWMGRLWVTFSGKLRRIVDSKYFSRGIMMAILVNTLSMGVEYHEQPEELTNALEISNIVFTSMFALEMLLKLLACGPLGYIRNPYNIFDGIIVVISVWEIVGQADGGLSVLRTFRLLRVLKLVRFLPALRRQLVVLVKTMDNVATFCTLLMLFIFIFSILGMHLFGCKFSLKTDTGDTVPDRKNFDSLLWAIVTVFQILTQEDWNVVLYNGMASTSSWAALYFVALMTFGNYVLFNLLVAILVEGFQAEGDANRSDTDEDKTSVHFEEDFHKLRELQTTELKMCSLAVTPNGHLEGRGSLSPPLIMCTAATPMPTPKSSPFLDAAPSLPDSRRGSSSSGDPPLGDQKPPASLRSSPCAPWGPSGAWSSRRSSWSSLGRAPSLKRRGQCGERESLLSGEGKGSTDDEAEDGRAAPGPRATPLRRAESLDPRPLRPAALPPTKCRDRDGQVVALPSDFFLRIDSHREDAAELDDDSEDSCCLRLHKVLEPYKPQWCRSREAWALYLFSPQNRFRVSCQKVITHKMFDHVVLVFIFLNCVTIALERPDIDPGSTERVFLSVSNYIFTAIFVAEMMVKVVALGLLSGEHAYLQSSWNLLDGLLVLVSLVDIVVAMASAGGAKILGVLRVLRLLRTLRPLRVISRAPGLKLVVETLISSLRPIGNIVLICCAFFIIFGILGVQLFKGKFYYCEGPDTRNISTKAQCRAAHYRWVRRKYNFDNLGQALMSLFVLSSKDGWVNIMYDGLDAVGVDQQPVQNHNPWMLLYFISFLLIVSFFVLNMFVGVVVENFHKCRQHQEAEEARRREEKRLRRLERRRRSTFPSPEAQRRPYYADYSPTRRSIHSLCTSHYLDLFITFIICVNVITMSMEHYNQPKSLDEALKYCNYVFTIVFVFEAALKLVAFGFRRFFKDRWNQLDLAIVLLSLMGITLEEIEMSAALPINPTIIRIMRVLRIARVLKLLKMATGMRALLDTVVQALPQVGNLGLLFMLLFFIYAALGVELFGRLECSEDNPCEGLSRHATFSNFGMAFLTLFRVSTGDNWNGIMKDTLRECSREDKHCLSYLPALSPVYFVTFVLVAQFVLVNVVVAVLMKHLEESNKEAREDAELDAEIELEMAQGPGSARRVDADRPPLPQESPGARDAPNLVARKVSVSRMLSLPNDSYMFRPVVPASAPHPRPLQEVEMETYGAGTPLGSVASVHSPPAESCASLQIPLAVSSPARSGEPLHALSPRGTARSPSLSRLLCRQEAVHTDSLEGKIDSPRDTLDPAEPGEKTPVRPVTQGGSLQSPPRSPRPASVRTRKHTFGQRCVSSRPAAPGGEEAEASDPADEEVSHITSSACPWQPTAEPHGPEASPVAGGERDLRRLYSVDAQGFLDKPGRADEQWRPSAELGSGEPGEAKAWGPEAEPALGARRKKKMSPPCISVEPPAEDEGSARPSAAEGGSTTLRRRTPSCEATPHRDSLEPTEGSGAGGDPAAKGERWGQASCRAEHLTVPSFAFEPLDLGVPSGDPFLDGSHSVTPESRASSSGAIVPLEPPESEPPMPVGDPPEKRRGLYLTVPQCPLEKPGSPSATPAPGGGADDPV
row,IC50,SMILES
1,> 30000 nM,Cc1cc(N2CCN(Cc3cc(F)c(C(=O)NS(=O)(=O)C4CC4)cc3Cl)CC2)ccc1Cl [Compound Z-164]

# Target: T2, hERG potassium ion channel (Homo sapiens, UniProt Q12809)
# T2 construct: host or cells: CHO
# Assay: Effect on hERG potassium ion channel (CHO hERG cells, manual patch clamp)
# Assay type: cell-based
# Settings: final 10 μM test concentration, read-out: hERG inhibitory concentration IC50
# Experimental: Assay 2: Effect on hERG Potassium Ion Channel 2.1 Cell Culture 2.1.1 Cells used in this experiment were CHO cell lines (supplied by Sophion Bioscience, Denmark) which were hERG cDNA transfectant and stably express hERG channels, and cell progeny was P15. Cells were cultured in medium containing the following ingredients Invitrogen): Ham's F12 medium, 10% (v/v) inactivated fetal bovine serum, […] Geneticin. 2.1.2 CHO hERG cells were grown in Petri dishes containing the above medium and cultured in an incubator containing 5% CO2 at 37° C. CHO hERG cells were transferred onto round glass plates in Petri dishes, and grown on the same culture medium under culture conditions as above for 24 h to 48 h prior to the electrophysiological experiments, and the density of CHO hERG cells on each round glass plate needs to meet the requirements that the vast majority of cells are independent and individual. 2.2 Experimental Solution The following solutions (supplied by Sophion) were used for electrophysiological recording as shown in Table 3. The reagents used in this test were provided by Sigma. [table] 2.3 Electrophysiological Recording System In this experiment, whole-cell current recording was performed using a manual patch clamp system (HEKA EPC-10 signal amplification and digital conversion system, purchased from HEKA Electronic, Germany). The round glass slide, surface of which CHO hERG cells were grown on was placed in an electrophysiological recording slot under an inverted microscope. Extracellular fluid was used for steady perfision in recording slot (approximately 1 ml per minute). A conventional whole-cell patch clamp current recording technique was used in the experiment. Unless otherwise specified, experiments were performed at normal room temperature (25° C.). Cell clamping was at −80 mV. Cell clamping voltage depolarized to +20 mV to activate hERG potassium channel, clamping to −50 mV after 5 sec to eliminate inactivation and generate tail currents. The tail current peak was used as a value for hERG current. The hERG potassium current recorded in the above steps could be superfused for test drug after the steady perfusion state of the extracellular fluid in the recording slot is stabilized until the inhibition of the hERG current by the drug reached a steady state. The coincidence of the last three consecutive current recording lines was generally used as a criterion to determine whether the state is stable. After reaching a steady state, perfused with extracellular fluid until hERG current returned to the value before the drug adding. One or more drugs could be tested on a single cell, or multiple concentrations of the same drug, but needed to be rinsed with extracellular fluid between different drugs. […] 2.4 Compound Treatment and Dilution The compound was firstly dissolved in DMSO to a concentration of 10 mM and then the compound was diluted 1000-fold to the final […] test concentration using an extracellular solution. The final concentration of DMSO in the compound test solution was equal to 0.1%. […] All stock solutions and test solutions were subjected to regular 5-10 minute sonication and shaken to ensure complete dissolution of the compound. 2.5 Data Analysis The test data were analyzed by the data analysis software provided by HEKA Patchmaster (V2x73.2), Microsoft Excel and Graphpad Prism 5.0.
# T2 sequence (Q12809 whole entry): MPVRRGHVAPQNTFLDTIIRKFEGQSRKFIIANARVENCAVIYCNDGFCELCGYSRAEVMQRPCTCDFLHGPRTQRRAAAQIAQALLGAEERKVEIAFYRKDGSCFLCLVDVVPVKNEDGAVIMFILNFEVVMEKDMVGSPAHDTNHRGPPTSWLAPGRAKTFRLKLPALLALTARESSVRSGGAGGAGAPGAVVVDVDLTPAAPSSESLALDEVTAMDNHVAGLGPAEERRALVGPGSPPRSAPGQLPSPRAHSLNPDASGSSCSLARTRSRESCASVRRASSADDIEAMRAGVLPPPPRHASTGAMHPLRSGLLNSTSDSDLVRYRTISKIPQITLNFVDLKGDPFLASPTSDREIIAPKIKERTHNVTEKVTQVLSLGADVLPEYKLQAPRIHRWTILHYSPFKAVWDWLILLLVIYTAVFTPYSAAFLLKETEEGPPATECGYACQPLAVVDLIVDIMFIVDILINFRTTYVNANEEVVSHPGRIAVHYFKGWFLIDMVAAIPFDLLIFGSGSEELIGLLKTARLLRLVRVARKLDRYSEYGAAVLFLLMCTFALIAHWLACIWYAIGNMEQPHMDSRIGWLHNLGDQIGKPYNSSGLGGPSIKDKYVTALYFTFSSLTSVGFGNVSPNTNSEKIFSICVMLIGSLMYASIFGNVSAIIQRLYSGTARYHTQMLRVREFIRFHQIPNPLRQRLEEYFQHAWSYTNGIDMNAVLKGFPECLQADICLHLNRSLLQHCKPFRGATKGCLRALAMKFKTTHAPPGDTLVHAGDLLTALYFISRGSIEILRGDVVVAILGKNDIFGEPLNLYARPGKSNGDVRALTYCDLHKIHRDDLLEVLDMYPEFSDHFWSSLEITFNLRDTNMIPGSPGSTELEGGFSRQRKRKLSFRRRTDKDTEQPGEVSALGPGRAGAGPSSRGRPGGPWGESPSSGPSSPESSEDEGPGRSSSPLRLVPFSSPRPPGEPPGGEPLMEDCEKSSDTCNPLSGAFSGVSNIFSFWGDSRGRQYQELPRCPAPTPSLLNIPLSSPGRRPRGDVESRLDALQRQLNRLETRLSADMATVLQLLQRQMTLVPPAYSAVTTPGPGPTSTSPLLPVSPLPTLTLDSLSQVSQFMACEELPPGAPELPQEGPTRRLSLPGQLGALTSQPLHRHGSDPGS
row,SMILES,IC50
1,CCc1cc(N2CCN(Cc3cc(F)c(C(=O)NS(=O)(=O)C4CC4)cc3Cl)CC2)ccc1Cl [Compound Z-178],> 10 µM
2,"C[C@@H]1CN(c2ccc(Cl)c(Cl)c2)CCN1Cc1cc(F)c(C(=O)NS(=O)(=O)C2CC2)cc1Cl [Compound Z-172, (R)-5-Chloro-N-(cyclopropylsulfonyl)-4-((4-(3,4-dichlorophenyl)-2-methylpiperazin-1-yl)methyl)-2-fluorobenzamide]",> 10 µM
3,O=C(NS(=O)(=O)C1CC1)c1cc(Cl)c(CN2CCN(c3ccc(C4CC4)c(Cl)c3)CC2)cc1F [Compound Z-173],> 10 µM
4,"CCc1cc(C(=O)NS(=O)(=O)C2CC2)c(F)cc1CN1CCN(c2ccc(OC(F)(F)F)cc2)CC1 [Compound Z-189, N-(cyclopropylsulfonyl)-5-ethyl-2-fluoro-4-((4-(4-(trifluoromethoxy)phenyl)piperazin-1-yl)methyl)benzamide]",> 10 µM
5,Cc1ccc(N2CCN(Cc3cc(F)c(C(=O)NS(=O)(=O)C4CC4)cc3Cl)CC2)cc1Cl [Compound Z-177],> 10 µM

# From patent US10815197B2, “N-sulfonyl benzamides as voltage-gated sodium channel inhibitors” (SHANGHAI HAIYAN PHARMACEUTICAL TECHNOLOGY CO., LTD., priority 2016, dated 2020)
